From patent publication US20160067162A1, “PHOTOPROTECTIVE COMPOUNDS, COMPOSITIONS INCLUDING SAME AND USES THEREOF” (UNIVERSITE DE RENNES 1, priority 2013, published 2016) come the findings set out here.

Data set [1] in a line: SPF measurement, Protocol I (Rennes): simplified O/W emulsion, UV spectrum 200-400 nm. It is filed as physicochemical. Particulars: for λc p.I: critical wavelength; for λc p.I / Colipa UVA-PF p.I, at 10% / SPF p.I, at 10%: protocol I; for Colipa UVA-PF p.I, at 10%: product at 10%; for SPF p.I, at 10%: product at 10% in simplified O/W emulsion; for UVA/UVB: ratio of area under the curve 315-400 nm to 280-315 nm. The protocol: The SPF measurement is carried out according to the following protocol described in Le Dévéhat F., Malargé A., Couteau C., Coiffard L., Legouin B. “Evaluation of a new UV-filter screening method”, 4th symposium of the AFERP “Biodiversity, chimie des substances naturelles et medicaments” [“Biodiversity, chemistry of natural substances and medicaments”] and 3rd Franco-Pakistani symposium, Besançon (France), Jul. 16-17-18, 2010. A solution of each product dissolved in dimethyl sulfoxide is incorporated at 10% into a simplified emulsion of oil-in-water (O/W) type consisting of liquid paraffin, water and SDS at 10%, the whole mixture taken up in absolute ethanol. The UV spectrum of each solution is recorded between 200 nm and 400 nm in a 10 mm quartz cell on a Uvikon 931 UV-vis spectrophotometer and measured in comparison with a control 10% emulsion solution.
The SPF and UVA-PF values are, for the two protocols, calculated from the following equations: […]
where Eλ is the erythemogenic effect of the radiation at the wavelength λ; Sλ is the spectral solar irradiance at the wavelength λ and Tλ is the spectral transmittance of the product at the wavelength λ, λc is the critical wavelength which corresponds to the wavelength at which 90% of the area under the curve (AUC) is integrated between 290 and 400 nm. The UVA/UVB ratio corresponds more specifically to the ratio of the area under the curve between 315 and 400 nm to the area under the curve between 280 and 315 nm.

Data set [2] in a line: UV spectrum measurement in CHCl3 (λmax, molar extinction coefficient). The data set is classed as physicochemical. Particulars: for λmax exp: 10^−4 M in CHCl3; for ε (molar extinction coefficient at the λmax): 10^−4 M in CHCl3, 1 cm cuvette. The protocol:
The products are diluted in CHCl3 so as to obtain a solution at 10^−4M. The UV spectra are measured using a Uvikon 931 UV-vis spectrophotometer, Serlabo Technologies, Entraigues sur la Sorgue, France. This UV spectrum makes it possible to determine the molar extinction coefficient (mol^−1 L cm^−1) at the λmax by virtue of the Beer-Lambert law: c=A/l×C;
A=value of the absorbance at the λmax; l=length of the cuvette in cm (l=1);
C=concentration of the solution=1×10^−4 mol/l. The theoretical λmax was determined for certain products by DFT calculation.

In the case of `COc1cc(OC)cc(C2=CC(=O)CCN2C(=O)OC(C)(C)C)c1` [Compound 10, tert-butyl 6-(3,5-dimethoxyphenyl)-4-oxo-3,4-dihydropyridine-1(2H)-carboxylate], in data set [1], the “λc p.I” value stood at 334 nm; the “Colipa UVA-PF p.I, at 10%” value came to 1.88 ± 0.01; the “SPF p.I, at 10%” value turned out to be 5.54 ± 0.66; the UVA/UVB is on record as 0.49 ± 0.15. In data set [2], the λmax exp was determined as 310 nm and the “ε (molar extinction coefficient at the λmax)” value was determined as 18622 L/mol/cm.
For `CC(C)(C)OC(=O)N1CCC(=O)C=C1c1ccc(Oc2ccccc2)cc1` [Compound 12, tert-butyl 4-oxo-6-(4-phenoxyphenyl)-3,4-dihydropyridine-1(2H)-carboxylate], in data set [1], the “λc p.I” value is 340 nm; the “Colipa UVA-PF p.I, at 10%” value worked out at 1.98 ± 0.05; the “SPF p.I, at 10%” value worked out at 5.31 ± 0.45; the UVA/UVB was 0.71 ± 0.01. Further, in data set [2], the λmax exp is listed as 316 nm and the “ε (molar extinction coefficient at the λmax)” value amounted to 20575 L/mol/cm.
PEG-25 PABA [reference compound]: in data set [1], the “λc p.I” value is 324 ± 1 nm; the “Colipa UVA-PF p.I, at 10%” value is 1.11 ± 0.01; the “SPF p.I, at 10%” value is recorded as 2.04 ± 0.05; the UVA/UVB is 0.19 ± 0.01.
With `CCOC(=O)/C=C/C1=C(c2ccccc2)NCCC1=O` [Compound 8, (E)-ethyl 3-(4-oxo-2-phenyl-1,4,5,6-tetrahydropyridin-3-yl)acrylate], in data set [1], the “λc p.I” value amounted to 378 nm; the “Colipa UVA-PF p.I, at 10%” value is on record as 5.38 ± 0.16; the “SPF p.I, at 10%” value is recorded as 6.73 ± 0.27; the UVA/UVB is recorded as 2.22 ± 0.01. Besides, in data set [2], the λmax exp came to 306 nm and the “ε (molar extinction coefficient at the λmax)” value amounted to 16596 L/mol/cm.
For `CCOC(=O)/C=C/C1=C(c2ccccc2)N(C(=O)OC(C)(C)C)CCC1=O` [Compound 7, (E)-tert-butyl 5-(3-ethoxy-3-oxoprop-1-enyl)-4-oxo-6-phenyl-3,4-dihydropyridine-1(2H)-carboxylate], in data set [1], the “λc p.I” value turned out to be 375 nm; the “Colipa UVA-PF p.I, at 10%” value is recorded as 2.92 ± 0.17; the “SPF p.I, at 10%” value is on record as 1.61 ± 0.13; the UVA/UVB was found to be 6.36 ± 1.16. In data set [2], the λmax exp is 343 nm and the “ε (molar extinction coefficient at the λmax)” value amounted to 15426 L/mol/cm.
For the compound `COc1ccc2cc(C3=CC(=O)CCN3C(=O)OC(C)(C)C)ccc2c1` [Compound 11, tert-butyl 6-(6-methoxynaphthalen-2-yl)-4-oxo-3,4-dihydropyridine-1(2H)-carboxylate], in data set [1], the “λc p.I” value is reported as 362 nm; the “Colipa UVA-PF p.I, at 10%” value worked out at 4.70 ± 0.42; the “SPF p.I, at 10%” value came to 5.50 ± 0.62; the UVA/UVB was determined as 1.92 ± 0.01. For the same compound, in data set [2], the λmax exp is recorded as 331 nm and the “ε (molar extinction coefficient at the λmax)” value is 14280 L/mol/cm.
On to `O=C1C=C(c2ccc(Cl)cc2)NCC1` [Compound 1, 6-(4-chlorophenyl)-2,3-dihydropyridin-4(1H)-one], for which, in data set [1], the “λc p.I” value is recorded as 366 nm; the “Colipa UVA-PF p.I, at 10%” value came to 3.97 ± 0.15; the “SPF p.I, at 10%” value amounted to 2.27 ± 0.06; the UVA/UVB stood at 4.78 ± 0.57. Also, in data set [2], the λmax exp is listed as 328 nm and the “ε (molar extinction coefficient at the λmax)” value came to 8131 L/mol/cm.
In the case of `CC1CC(OC(=O)c2ccccc2O)CC(C)(C)C1` (stereo not shown) [Homosalate, reference compound], in data set [1], the “λc p.I” value is recorded as 323 ± 1 nm; the “Colipa UVA-PF p.I, at 10%” value came to 1.08 ± 0.00; the “SPF p.I, at 10%” value was 1.91 ± 0.04; the UVA/UVB worked out at 0.17 ± 0.00.
For the compound `COc1ccc(C(=O)c2ccccc2)c(O)c1` [Oxybenzone, reference compound], in data set [1], the “λc p.I” value was 349 ± 1 nm; the “Colipa UVA-PF p.I, at 10%” value turned out to be 2.63 ± 0.01; the “SPF p.I, at 10%” value is 5.27 ± 0.25; the UVA/UVB came out at 0.98 ± 0.00. Further, the “Colipa UVA-PF p.I, at 10%” value in data set [1] (listed as oxybenzone) is listed as 2.63.
Turning to `CN1C=C(NC(=O)OC(C)(C)C)C(=O)CC1` [Compound 18, tert-butyl 1-methyl-4-oxo-1,4,5,6-tetrahydropyridin-3-ylcarbamate], in data set [1], the “λc p.I” value is reported as 368 nm; the “Colipa UVA-PF p.I, at 10%” value was 3.49 ± 0.17; the “SPF p.I, at 10%” value is 2.67 ± 0.08; the UVA/UVB was determined as 3.05 ± 0.04. Besides, in data set [2], the λmax exp is 355 nm and the “ε (molar extinction coefficient at the λmax)” value is 8618 L/mol/cm.
`CCCC1=C(/C=C/C(=O)OCC)C(=O)C[C@H](Cc2ccccc2)N1` [Compound 17, (S,E)-ethyl 3-(6-benzyl-4-oxo-2-propyl-1,4,5,6-tetrahydropyridin-3-yl)acrylate]: in data set [1], the “λc p.I” value came out at 353 nm; the “Colipa UVA-PF p.I, at 10%” value was determined as 4.88 ± 0.11; the “SPF p.I, at 10%” value stood at 13.28 ± 0.66; the UVA/UVB is 1.46 ± 0.01. In data set [2], the λmax exp is listed as 316 nm and the “ε (molar extinction coefficient at the λmax)” value stood at 20260 L/mol/cm.
Turning to `CC(C)(C)OC(=O)NC1=C(c2ccccc2)N(C(=O)OC(C)(C)C)CCC1=O` [Compound 6, tert-butyl 5-(tert-butoxycarbonylamino)-4-oxo-6-phenyl-3,4-dihydropyridine-1(2H)-carboxylate], in data set [1], the “λc p.I” value stood at 351 nm; the “Colipa UVA-PF p.I, at 10%” value was found to be 1.56 ± 0.04; the “SPF p.I, at 10%” value was found to be 2.04 ± 0.09; the UVA/UVB worked out at 1.24 ± 0.0. In data set [2], the λmax exp was 322 nm and the “ε (molar extinction coefficient at the λmax)” value was found to be 11206 L/mol/cm.
In the case of `COc1ccc2cc(C3=CC(=O)CCN3)ccc2c1` [Compound 15, 6-(6-methoxynaphthalen-2-yl)-2,3-dihydropyridin-4(1H)-one], in data set [1], the “λc p.I” value was 368 nm; the “Colipa UVA-PF p.I, at 10%” value was found to be 7.41 ± 1.34; the “SPF p.I, at 10%” value was found to be 5.89 ± 0.99; the UVA/UVB was 2.65 ± 0.01. Also, in data set [2], the λmax exp amounted to 337 nm and the “ε (molar extinction coefficient at the λmax)” value came out at 15578 L/mol/cm.
In the case of `COc1ccccc1C1=CC(=O)CCN1` [Compound 16, 6-(2-methoxyphenyl)-2,3-dihydropyridin-4(1H)-one], in data set [1], the “λc p.I” value came to 358 nm; the “Colipa UVA-PF p.I, at 10%” value is reported as 4.96 ± 0.18; the “SPF p.I, at 10%” value is recorded as 5.94 ± 0.34; the UVA/UVB came out at 2.12. Moreover, in data set [2], the λmax exp stood at 333 nm and the “ε (molar extinction coefficient at the λmax)” value was found to be 13110 L/mol/cm.
With `CCCCC(CC)COC(=O)c1ccc(Nc2nc(Nc3ccc(C(=O)NC(C)(C)C)cc3)nc(Nc3ccc(C(=O)OCC(CC)CCCC)cc3)n2)cc1` (stereo not shown) [Diethylhexyl Butamido Triazone, reference compound], in data set [1], the “Colipa UVA-PF p.I, at 10%” value was determined as 1.27 ± 0.01; the “SPF p.I, at 10%” value amounted to 10.10 ± 0.02; the UVA/UVB came to 0.12 ± 0.01.
Consider `CCOC(=O)/C=C/C1=C(c2ccccc2)N[C@@H](COCc2ccccc2)CC1=O` [Compound 9, (R,E)-ethyl 3-(6-(benzyloxymethyl)-4-oxo-2-phenyl-1,4,5,6-tetrahydropyridin-3-yl)acrylate], for which, in data set [1], the “λc p.I” value is 353 nm; the “Colipa UVA-PF p.I, at 10%” value was determined as 3.54; the “SPF p.I, at 10%” value amounted to 5.40 ± 0.43; the UVA/UVB was determined as 1.84. Further, in data set [2], the λmax exp worked out at 308 nm and the “ε (molar extinction coefficient at the λmax)” value was 31339 L/mol/cm.
